The results in this text go back to patent publication US10907212B2, “Inhibitors of cell adhesion” (Regents of the University of Minnesota, priority 2016, dated 2021).

Entries after “also recorded” stand apart in the source; their conditions may differ. Where no end group is shown, it is not given here.

The first experiment relates to nectin 4 protein on NIH:OVCAR-5 cells. The experiment is described as follows: Effect of peptides on anti-Nectin-4 antibody binding to cells as determined by flow cytometry. The experiment is classed as cell-based, human. Conditions: Run One; 150 μg/mL peptide, 30 minutes; Control 1 = 15,015. How it is done: Confluent monolayers of cells were detached from 75 cm^2 tissue culture flasks using Accutase cell dissociation buffer (Innovative Cell Technologies, San Diego, Calif.), washed, and labeled with mouse IgG or mAbs against Nectin-4 or Nectin-1 (2.5 μg/10^6 cells) in Flow Buffer [phosphate buffered saline (PBS) containing 2.5% newborn calf serum and 0.02% sodium azide] for 30 min at 4° C.. Cells were washed and incubated with goat anti-mouse IgG F(ab′)2 (Jackson ImmunoResearch, West Grove, Pa.), then washed again and incubated with streptavidin-allophycocyanin conjugate (Jackson ImmunoResearch, West Grove, Pa.) for 30 min each. Cells were washed and fixed in Flow Buffer containing 1% formaldehyde and analyzed in the University of Minnesota Flow Cytometry Resource with a BD Accuri™ C6 flow cytometer (BD Biosciences, San Jose, Calif.) using the Accuri™ software.
Briefly, NIH:OVCAR-5 cells that natively express a moderate amount of nectin 4 protein were incubated for 30 minutes in 150 μg/mL of soluble peptide in DMSO. After incubation, the cells were washed, and then triple antibody stained using mouse anti-nectin 4 (or IgG control) primary antibody, biotinylated goat anti-mouse secondary antibody, and streptavidin APC tertiary antibody. Finally, utilizing the University of Minnesota flow core's Accuri C6 flow cytometer, the relative antibody binding affinity for control and peptide-treated samples was quantitated and compared. Data was collected for each of the 57 peptides generated.
Regarding “HSRSAAVTSEFHLV-NH2 (listed as Homo sapiens) [Peptide 15]”, the “N4 MFI” value is 7,980.

For “QARLRLRVLVPPLP-NH2 (listed as Homo sapiens) [Peptide 10]”, the “N4 MFI” value was 4,119.

As to “TCVVSHPGLLQDQR-NH2 (listed as Homo sapiens) [Peptide 17]”, the “N4 MFI” value was 20,511.

In the case of “VVLGQDAKLPCFYR-NH2 (listed as Homo sapiens) [Peptide 2]”, the “N4 MFI” value is 11,895.

Turning to “ELALLHSKYGLHVS-NH2 (listed as Homo sapiens) [Peptide 5]”, the “N4 MFI” value is 11,668.

Staying with this experiment, now noted: Run One; 150 μg/mL peptide, 30 minutes; IgG control primary antibody; Control 1 = 1,670.
“HSRSAAVTSEFHLV-NH2 (listed as Homo sapiens) [Peptide 15]”: the “IgG MFI” value is on record as 2,158.

As for “QARLRLRVLVPPLP-NH2 (listed as Homo sapiens) [Peptide 10]”, the “IgG MFI” value is 2,452.

As for “TCVVSHPGLLQDQR-NH2 (listed as Homo sapiens) [Peptide 17]”, the “IgG MFI” value is reported as 8,686.

As for “VVLGQDAKLPCFYR-NH2 (listed as Homo sapiens) [Peptide 2]”, the “IgG MFI” value was 2,458.

With “ELALLHSKYGLHVS-NH2 (listed as Homo sapiens) [Peptide 5]”, the “IgG MFI” value is 1,711.

Staying with this experiment, now noted: Run One; Control 1 = 8.99.
As for “HSRSAAVTSEFHLV-NH2 (listed as Homo sapiens) [Peptide 15]”, the “N4 MFI/IgG MFI” value is reported as 3.70.

With “QARLRLRVLVPPLP-NH2 (listed as Homo sapiens) [Peptide 10]”, the “N4 MFI/IgG MFI” value amounted to 1.68.

Regarding “TCVVSHPGLLQDQR-NH2 (listed as Homo sapiens) [Peptide 17]”, the “N4 MFI/IgG MFI” value is 2.36.

For “VVLGQDAKLPCFYR-NH2 (listed as Homo sapiens) [Peptide 2]”, the “N4 MFI/IgG MFI” value turned out to be 4.84.

As to “ELALLHSKYGLHVS-NH2 (listed as Homo sapiens) [Peptide 5]”, the “N4 MFI/IgG MFI” value was 6.82.

The same experiment, now with this note: Run One; antibody binding relative to Control 1 = 100.00.
As for “HSRSAAVTSEFHLV-NH2 (listed as Homo sapiens) [Peptide 15]”, the “nectin-4 antibody binding, percent of control” value is recorded as 43.63.

For “QARLRLRVLVPPLP-NH2 (listed as Homo sapiens) [Peptide 10]”, the “nectin-4 antibody binding, percent of control” value is 12.49.

With “TCVVSHPGLLQDQR-NH2 (listed as Homo sapiens) [Peptide 17]”, the “nectin-4 antibody binding, percent of control” value is 88.61.

In the case of “VVLGQDAKLPCFYR-NH2 (listed as Homo sapiens) [Peptide 2]”, the “nectin-4 antibody binding, percent of control” value was determined as 70.72.

Consider “ELALLHSKYGLHVS-NH2 (listed as Homo sapiens) [Peptide 5]”, for which the “nectin-4 antibody binding, percent of control” value is 74.61.

The same experiment, now with this note: Run Three; 150 μg/mL peptide, 30 minutes; Control 3 = 13,070.20.
“FANPLPSVKITQVTW-NH2 (listed as Homo sapiens) [Peptide 32]”: the “N4 MFI” value is reported as 2,542.31.

Staying with this experiment, now noted: Run Three; Control 3 = 9.83.
As to “FANPLPSVKITQVTW-NH2 (listed as Homo sapiens) [Peptide 32]”, the “N4 MFI/IgG MFI” value is listed as 2.47.

The experiment is the same for the next values; noted with them: Run Three; IgG control primary antibody; Control 3 = 1330.
For “FANPLPSVKITQVTW-NH2 (listed as Homo sapiens) [Peptide 32]”, the “IgG MFI” value was 1029.

Still in this experiment, the particulars now being: Run Three; antibody binding relative to Control 3 = 100.00.
With “FANPLPSVKITQVTW-NH2 (listed as Homo sapiens) [Peptide 32]”, the “nectin-4 antibody binding, percent of control” value is 12.89.

Staying with this experiment, now noted: Run Two; 150 μg/mL peptide, 30 minutes; Control 2 = 49,491.
On to “SNEFSSRDSQVTVD-NH2 (listed as Homo sapiens) [Peptide 25]”, for which the “N4 MFI” value was 7,756.

Regarding “WTRLDGPLPSGVRV-NH2 (listed as Homo sapiens) [Peptide 22]”, the “N4 MFI” value is reported as 70,336.

The experiment is the same for the next values; noted with them: Run Two; Control 2 = 9.46.
In the case of “SNEFSSRDSQVTVD-NH2 (listed as Homo sapiens) [Peptide 25]”, the “N4 MFI/IgG MFI” value was found to be 2.16.

For the substance “WTRLDGPLPSGVRV-NH2 (listed as Homo sapiens) [Peptide 22]”, the “N4 MFI/IgG MFI” value is 9.82.

Still in this experiment, the particulars now being: Run Two; IgG control primary antibody; Control 2 = 5,233.
On to “SNEFSSRDSQVTVD-NH2 (listed as Homo sapiens) [Peptide 25]”, for which the “IgG MFI” value is given as 3,584.

For the substance “WTRLDGPLPSGVRV-NH2 (listed as Homo sapiens) [Peptide 22]”, the “IgG MFI” value is given as 7,160.

The experiment is the same for the next values; noted with them: Run Two; antibody binding relative to Control 2 = 100.00.
Take “SNEFSSRDSQVTVD-NH2 (listed as Homo sapiens) [Peptide 25]”: the “nectin-4 antibody binding, percent of control” value amounted to 9.43.

“WTRLDGPLPSGVRV-NH2 (listed as Homo sapiens) [Peptide 22]”: the “nectin-4 antibody binding, percent of control” value is 142.74.

The experiment is the same for the next values; noted with them: flow cytometry; 150 μg/mL peptide.
On to “SNEFSSRDSQVTVD-NH2 (listed as Homo sapiens) [Peptide 25]”, for which the “nectin-4 antibody binding compared to untreated control cells (in words)” value was “reduction in nectin-4 antibody binding”.

Take “HSRSAAVTSEFHLV-NH2 (listed as Homo sapiens) [Peptide 15]”: the “nectin-4 antibody binding compared to untreated control cells (in words)” value is on record as “reduction in nectin-4 antibody binding; also recorded: reduced antibody binding”.

On to “WTRLDGPLPSGVRV-NH2 (listed as Homo sapiens) [Peptide 22]”, for which the “nectin-4 antibody binding compared to untreated control cells (in words)” value is listed as “increased nectin-4 antibody binding”.

On to “QARLRLRVLVPPLP-NH2 (listed as Homo sapiens) [Peptide 10]”, for which the “nectin-4 antibody binding compared to untreated control cells (in words)” value is “reduction in nectin-4 antibody binding; also recorded: reduced antibody binding”.

As for “FANPLPSVKITQVTW-NH2 (listed as Homo sapiens) [Peptide 32]”, the “nectin-4 antibody binding compared to untreated control cells (in words)” value is “reduction in nectin-4 antibody binding”.

The same experiment, now with this note: summary table; Nectin-4 antibody binding relative to control = 100.
Turning to “SNEFSSRDSQVTVD-NH2 (listed as Homo sapiens) [Peptide 25]”, the Flow binding was found to be 9.40%.

“HSRSAAVTSEFHLV-NH2 (listed as Homo sapiens) [Peptide 15]” returned a Flow binding of 44%.

For “WTRLDGPLPSGVRV-NH2 (listed as Homo sapiens) [Peptide 22]”, the Flow binding amounted to 143%.

“QARLRLRVLVPPLP-NH2 (listed as Homo sapiens) [Peptide 10]”: the Flow binding is 12.50%.

In the case of “FANPLPSVKITQVTW-NH2 (listed as Homo sapiens) [Peptide 32]”, the Flow binding is given as 13%.

Another experiment relates to ovarian cancer cell aggregation and spheroid formation. The experiment is described as follows: Spheroid assay for peptides (visual scale +1 to +5). The experiment is classed as cell-based, human.
Conditions: not given
The method, then:
Spheroids were formed from the NIH:OVCAR5 cell lines described above using the liquid overlay method. One milliliter of a single cell suspension was seeded at a concentration of 50,000 cells/ml in OptiMEM® media, into 24-well tissue culture plates coated with 0.5% Seakem agarose (in complete RPMI-1640). Plates were incubated at 37° C. in a humidified incubator with 5% CO2. At various time points up to 5 days, the plates were removed from the incubator and the spheroids were photographed with a Nikon CoolPix digital camera mounted on an Olympus CK2 inverted microscope with a 4× objective. The size of the spheroids was determined using the measure tool in Adobe Photoshop. The largest spheroids were quantified (20-90 spheroids/well), in a minimum of 8 wells, for a total of >300 spheroids per cell type.
The clinical relevance is that by blocking the formation of spheroids, the cells will be more sensitive to chemotherapy (which targets the single cells that proliferate more rapidly than spheroids).
The spheroid assay for peptides 1-30 were scored using a visual scale of +1 to +5. The controls were scored at +2 (24 hrs) and +4 (48 hrs). […] It may be harder to visually assess the size at 24 hours, since the spheroids are relatively small, but and perhaps some of the peptides are affecting cell division, and that is why the spheroids are smaller than the controls at 48 hours, but not 24 hrs (this can be easily assayed with an MTT assay).
As to “HSRSAAVTSEFHLV-NH2 (listed as Homo sapiens) [Peptide 15]”, the “spheroid size (in words)” value was “reduced spheroid size”.

Regarding “QARLRLRVLVPPLP-NH2 (listed as Homo sapiens) [Peptide 10]”, the “spheroid size (in words)” value is “reduced spheroid size”.

The experiment is the same for the next values; noted with them: 24 hrs; visual scale of +1 to +5; Control = 2.
The substance “SNEFSSRDSQVTVD-NH2 (listed as Homo sapiens) [Peptide 25]” yielded a Spheroid-24 of 2.

Take “HSRSAAVTSEFHLV-NH2 (listed as Homo sapiens) [Peptide 15]”: the Spheroid-24 worked out at 1.

“WTRLDGPLPSGVRV-NH2 (listed as Homo sapiens) [Peptide 22]”: the Spheroid-24 came to 1.

For “QARLRLRVLVPPLP-NH2 (listed as Homo sapiens) [Peptide 10]”, the Spheroid-24 is reported as 1.

For the substance “TCVVSHPGLLQDQR-NH2 (listed as Homo sapiens) [Peptide 17]”, the Spheroid-24 is given as 1.

Still in this experiment, the particulars now being: 48 hrs; visual scale of +1 to +5; Control = 4.
With “HSRSAAVTSEFHLV-NH2 (listed as Homo sapiens) [Peptide 15]”, the Spheroid-48 stood at 2.

The substance “WTRLDGPLPSGVRV-NH2 (listed as Homo sapiens) [Peptide 22]” returned a Spheroid-48 of 3.

In turn, “QARLRLRVLVPPLP-NH2 (listed as Homo sapiens) [Peptide 10]” returned a Spheroid-48 of 2.

“TCVVSHPGLLQDQR-NH2 (listed as Homo sapiens) [Peptide 17]” registered a Spheroid-48 of 2.

“VVLGQDAKLPCFYR-NH2 (listed as Homo sapiens) [Peptide 2]” displayed a Spheroid-48 of 3.

“FANPLPSVKITQVTW-NH2 (listed as Homo sapiens) [Peptide 32]”: the Spheroid-48 is on record as 2.

The substance “ELALLHSKYGLHVS-NH2 (listed as Homo sapiens) [Peptide 5]” registered a Spheroid-48 of 3.
